The values that follow are results of earlier work, collected in patent US20210085696A1, “FORMULATIONS COMPRISING CHELATORS, PERMEATION ENHANCERS AND HYDROXYETHYL CELLULOSE FOR TREATING OPHTHALMIC DISORDERS” (LIVIONEX, Inc., priority 2018, published 2021).

For the series the following is noted: @ 79° F.

As to `CS(C)(=O)=O` [MSM, methylsulfonylmethane], the water solubility is 34 % w/v.
